Reference: US7563805B2, “Tri-, tetra-substituted-3-aminopyrrolidine derivative” (Daiichi Pharmaceutical Co., Ltd., priority 2005, dated 2009)
Values after ≈ are worked out from the molar mass of the structure shown.

Key:
[1] = tested on: S. aureus, 87037 (LVFX-resistant MRSA); experiment: antibacterial activity (MIC), standard method of Japanese Society of Chemotherapy; conditions: Staphylococcus aureus, MRSA
P. aeruginosa, 32104 = experiment: as above; conditions: Pseudomonas aeruginosa
P. vulgaris, 08601 = experiment: as above; conditions: Proteus vulgaris, 08601, P. vulgaris
S. aureus, 209P = experiment: as above; conditions: Staphylococcus aureus
S. marscecens, 10100 = experiment: as above
E. faecalis, ATCC 19433 = experiment: as above; conditions: Enterococcus faecalis, ATCC19433, E. faecalis
P. aeruginosa, 32121 = experiment: as above; conditions: Pseudomonas aeruginosa
E. coli NIHJ = experiment: as above; conditions: Escherichia coli
S. epidermidis, 56500 = experiment: as above; conditions: Staphylococcus epidermidis, 56500, S. epidermidis
[2] = tested on: S. pneumoniae, J24 (penicillin-intermediate resistant bacteria); experiment: as above; conditions: Streptococcus pneumoniae
hERG K+ channel = hERG K+ channel (Homo sapiens, UniProt Q12809); experiment: hERG-K^+ channel blocking effect
[3] = tested on: Mycobacterium tuberculosis (quinolone sensitive); experiment: anti-Mycobacterium tuberculosis (quinolone sensitive) activity, MIC; format: cell-based
[4] = tested on: Mycobacterium tuberculosis (sensitive bacteria); experiment: anti-Mycobacterium tuberculosis (sensitive bacteria) activity, MIC; format: cell-based

Sequence of hERG K+ channel (Q12809 whole entry): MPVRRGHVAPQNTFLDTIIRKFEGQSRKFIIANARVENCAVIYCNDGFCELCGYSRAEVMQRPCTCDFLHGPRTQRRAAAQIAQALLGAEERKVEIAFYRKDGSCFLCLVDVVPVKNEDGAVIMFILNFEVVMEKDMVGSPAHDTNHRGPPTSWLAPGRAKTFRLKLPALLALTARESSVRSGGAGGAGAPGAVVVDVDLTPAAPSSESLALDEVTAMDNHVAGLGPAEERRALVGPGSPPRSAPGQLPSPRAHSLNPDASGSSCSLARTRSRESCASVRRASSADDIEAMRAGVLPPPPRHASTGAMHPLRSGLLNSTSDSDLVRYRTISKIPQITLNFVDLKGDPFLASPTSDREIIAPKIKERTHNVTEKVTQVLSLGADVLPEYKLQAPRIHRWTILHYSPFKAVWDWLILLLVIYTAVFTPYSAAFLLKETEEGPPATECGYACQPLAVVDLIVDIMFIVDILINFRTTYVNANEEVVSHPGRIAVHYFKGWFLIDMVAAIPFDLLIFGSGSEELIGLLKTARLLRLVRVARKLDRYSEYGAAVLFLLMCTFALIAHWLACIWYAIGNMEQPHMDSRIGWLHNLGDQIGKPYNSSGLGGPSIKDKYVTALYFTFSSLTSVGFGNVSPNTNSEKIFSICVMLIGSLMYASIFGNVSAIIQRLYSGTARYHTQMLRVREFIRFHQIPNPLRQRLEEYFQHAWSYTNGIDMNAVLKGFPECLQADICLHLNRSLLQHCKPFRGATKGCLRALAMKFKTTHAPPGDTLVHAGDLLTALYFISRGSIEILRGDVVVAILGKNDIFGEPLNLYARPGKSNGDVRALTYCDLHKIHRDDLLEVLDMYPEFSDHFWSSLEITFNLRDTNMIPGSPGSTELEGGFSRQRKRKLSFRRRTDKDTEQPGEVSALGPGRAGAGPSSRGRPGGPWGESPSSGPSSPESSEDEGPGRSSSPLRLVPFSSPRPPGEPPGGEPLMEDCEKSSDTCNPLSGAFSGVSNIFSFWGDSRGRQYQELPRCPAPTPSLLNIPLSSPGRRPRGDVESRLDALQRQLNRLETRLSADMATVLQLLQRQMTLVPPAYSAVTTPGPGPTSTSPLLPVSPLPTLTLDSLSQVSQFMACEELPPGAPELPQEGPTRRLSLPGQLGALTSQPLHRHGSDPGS

COc1c(N2CC(C)C(C)(N)C2)c(F)cc2c(=O)c(C(=O)O)cn([C@@H]3C[C@@H]3F)c12 (relative stereo) [Example 1, 7-[(3R*,4S*)-3-Amino-3,4-dimethylpyrrolidin-1-yl]-6-fluoro-1-[(1R,2S)-2-fluorocyclopropyl]-8-methoxy-1,4-dihydro-4-oxoguinoline-3-carboxylic acid]
MIC ([1]; S. aureus, 87037 (LVFX-resistant MRSA)): 0.78 µg/mL (≈ 1.91 µM)
MIC (P. aeruginosa, 32104): 0.39 µg/mL (≈ 0.957 µM)
MIC (P. vulgaris, 08601): 0.05 µg/mL (≈ 0.123 µM)
MIC (S. aureus, 209P): 0.025 µg/mL (≈ 0.0614 µM)
MIC (S. marscecens, 10100): 0.2 µg/mL (≈ 0.491 µM)
MIC (E. faecalis, ATCC 19433): 0.2 µg/mL (≈ 0.491 µM)
MIC (P. aeruginosa, 32121): 0.2 µg/mL (≈ 0.491 µM)
MIC (E. coli NIHJ): 0.025 µg/mL (≈ 0.0614 µM)
MIC (S. epidermidis, 56500): 0.1 µg/mL (≈ 0.245 µM)
MIC [2]: 0.1 µg/mL (≈ 0.245 µM)

COc1c(N2CC(F)[C@](C)(N)C2)c(F)cc2c(=O)c(C(=O)O)cn([C@@H]3C[C@@H]3F)c12 (single isomer, unassigned) [Example 25]
inhibition at 30 µM (hERG K+ channel): 2 ± 7.2%
inhibition at 100 µM (hERG K+ channel): 4.2 ± 7.9%
inhibition at 300 µM (hERG K+ channel): 17.1 ± 14.4%
melting point: 160 to 163 °C

COc1c(N2CC(OC)C(C)(N)C2)c(F)cc2c(=O)c(C(=O)O)cn([C@@H]3C[C@@H]3F)c12 (stereo partly drawn) [Example 18, 7-(3-Amino-4-methoxy-3-methylpyrrolidine-1-yl)-6-fluoro-1-[(1R,2S)-2-fluorocyclopropyl]-8-methoxy-1,4-dihydro-4-oxoquinoline-3-carboxylic acid]
melting point: 150 to 151 °C

COc1c(N2CCNC(C)C2)c(F)cc2c(=O)c(C(=O)O)cn(C3CC3)c12 (stereo not drawn) [GTFX, gatifloxacin, reference compound]
MIC [1]: 1.56 µg/mL (≈ 4.16 µM)
MIC (P. aeruginosa, 32104): 0.2 µg/mL (≈ 0.533 µM)
MIC (P. vulgaris, 08601): 0.006 µg/mL (≈ 0.016 µM)
MIC (S. aureus, 209P): 0.05 µg/mL (≈ 0.133 µM)
MIC (S. marscecens, 10100): 0.1 µg/mL (≈ 0.266 µM)
inhibition at 30 µM (hERG K+ channel): 8.1 ± 6%
inhibition at 100 µM (hERG K+ channel): 17.6 ± 11.5%
inhibition at 300 µM (hERG K+ channel): 39 ± 10.8%
MIC (E. faecalis, ATCC 19433): 0.39 µg/mL (≈ 1.04 µM)
MIC (P. aeruginosa, 32121): 0.1 µg/mL (≈ 0.266 µM)
MIC (E. coli NIHJ): 0.006 µg/mL (≈ 0.016 µM)
MIC (S. epidermidis, 56500): 0.2 µg/mL (≈ 0.533 µM)
MIC [2]: 0.2 µg/mL (≈ 0.533 µM)

CO[C@H]1/C=C/O[C@@]2(C)Oc3c(C)c(O)c4c(O)c(c(/C=N/N5CCN(C)CC5)c(O)c4c3C2=O)NC(=O)/C(C)=C\C=C\[C@H](C)[C@H](O)[C@@H](C)[C@@H](O)[C@@H](C)[C@H](OC(C)=O)[C@@H]1C [RFP, Rifampicin]
MIC ([3]; strain 1 (QR-3)): > 128 µg/mL
MIC ([3]; strain 2 (QR-6)): > 128 µg/mL
MIC ([3]; strain 3 (QR-1)): 128 µg/mL (≈ 156 µM)
MIC ([3]; strain 4 (QR-9)): > 128 µg/mL
MIC ([3]; strain MDR 1): 16 µg/mL (≈ 19.4 µM)
MIC ([3]; strain MDR 3): 128 µg/mL (≈ 156 µM)
MIC ([3]; strain MDR 4): 64 µg/mL (≈ 77.8 µM)
MIC ([3]; strain MDR 5): 32 µg/mL (≈ 38.9 µM)
MIC ([3]; strain MDR 7): > 128 µg/mL
MIC ([3]; strain MDR 9): 128 µg/mL (≈ 156 µM)
MIC ([3]; strain MDR 12): 128 µg/mL (≈ 156 µM)
MIC ([3]; strain S 1): 16 µg/mL (≈ 19.4 µM)
MIC ([4]; H37RV, strain H37Rv): 0.125 µg/mL (≈ 0.152 µM)
MIC ([4]; strain Kurono): 0.06 µg/mL (≈ 0.0729 µM)
MIC ([4]; strain Ravenel): 0.125 µg/mL (≈ 0.152 µM)
MIC ([4]; strain TB-s 2): 0.03 µg/mL (≈ 0.0365 µM)
MIC ([4]; strain TB-s 3): 0.125 µg/mL (≈ 0.152 µM)
MIC ([4]; strain TB-s 4): 0.06 µg/mL (≈ 0.0729 µM)
MIC ([4]; strain TB-s 5): 0.06 µg/mL (≈ 0.0729 µM)
MIC ([4]; strain TB-s 6): 0.125 µg/mL (≈ 0.152 µM)
MIC ([4]; strain TB-s 7): 0.06 µg/mL (≈ 0.0729 µM)
MIC ([4]; strain TB-s 8): 0.015 µg/mL (≈ 0.0182 µM)
MIC ([4]; strain TB-s 9): 0.06 µg/mL (≈ 0.0729 µM)
MIC ([4]; strain TB-s 10): 0.06 µg/mL (≈ 0.0729 µM)
MIC ([4]; strain TB-s 11): 0.06 µg/mL (≈ 0.0729 µM)
MIC ([4]; strain TB-s 12): 0.125 µg/mL (≈ 0.152 µM)
MIC ([4]; strain TB-s 13): 0.06 µg/mL (≈ 0.0729 µM)
MIC ([4]; strain TB-s 14): 0.03 µg/mL (≈ 0.0365 µM)
MIC ([4]; strain TB-s 15): 0.06 µg/mL (≈ 0.0729 µM)
MIC ([4]; strain TB-s 16): 0.06 µg/mL (≈ 0.0729 µM)
MIC ([4]; strain TB-s 17): 0.06 µg/mL (≈ 0.0729 µM)
MIC ([4]; strain TB-s 18): 0.03 µg/mL (≈ 0.0365 µM)
MIC ([4]; strain TB-s 19): 0.125 µg/mL (≈ 0.152 µM)
MIC ([4]; strain TB-s 20): 0.25 µg/mL (≈ 0.304 µM)
MIC ([4]; strain TB-s 21): 0.03 µg/mL (≈ 0.0365 µM)
MIC ([4]; strain TB-s 22): 0.015 µg/mL (≈ 0.0182 µM)

COc1c(N2CC(OC)C(C)(N)C2)c(F)cc2c(=O)c(C(=O)O)cn([C@@H]3C[C@@H]3F)c12 (stereo partly drawn) [Example 19, 7-(3-Amino-4-methoxy-3-methylpyrrolidine-1-yl)-6-fluoro-1-[(1R,2S)-2-fluorocyclopropyl]-8-methoxy-1,4-dihydro-4-oxoquinoline-3-carboxylic acid]
melting point: 162 to 163 °C

CCC1CN(c2c(F)cc3c(=O)c(C(=O)O)cn([C@@H]4C[C@@H]4F)c3c2OC)CC1(C)N (relative stereo) [Example 14, 7-[(3R*,4R*)-3-Amino-4-ethyl-3-methylpyrrolidin-1-yl]-6-fluoro-1-[(1R,2S)-2-fluorocyclopropyl]-8-methoxy-1,4-dihydro-4-oxoquinoline-3-carboxylic acid]
melting point: 167 to 169 °C
